Marks after values point to notes of the source that are not given here.
Key:
HSA [1] = biological target: T1, HSA (Homo sapiens, UniProt P02768); test: HSA binding by equilibrium dialysis or ultrafiltration, 4.5% weight/volume HSA, pH 7.4 buffer
Source text: (§1) In this application, the measurement of percent binding of the contrast agent to HSA has an error of approximately ±5%.

[2] = Rat plasma pharmacokinetic experiment (Gd153 radiolabeled complexes, tail vein injection)
Procedure: In this application, blood half-life data, as measured by AUC-conc., represents experimentation in rats.
(§2) Rats were injected intravenously (tail vein) with 0.1 mmol/kg of the Gd^153 radiolabeled complexes. Plasma concentrations were determined over 30 minutes and fit to a standard bi-exponential two-compartment model. […] In addition, the 1/T1s of the plasma samples were recorded (at 20 MHZ, 37° C.) to assess the efficacy as MRI agents.

HSA [3] = biological target: T1, HSA
Source text: as §1

[4] = 1/T1 of rat plasma samples after intravenous injection (efficacy as MRI agents); format: in vivo; conditions: rats, 0.1 mmol/kg i.v., plasma 1/T1 at 20 MHZ, 37° C., first 10 minutes
Procedure: as §2

T1 sequence (P02768 25-609): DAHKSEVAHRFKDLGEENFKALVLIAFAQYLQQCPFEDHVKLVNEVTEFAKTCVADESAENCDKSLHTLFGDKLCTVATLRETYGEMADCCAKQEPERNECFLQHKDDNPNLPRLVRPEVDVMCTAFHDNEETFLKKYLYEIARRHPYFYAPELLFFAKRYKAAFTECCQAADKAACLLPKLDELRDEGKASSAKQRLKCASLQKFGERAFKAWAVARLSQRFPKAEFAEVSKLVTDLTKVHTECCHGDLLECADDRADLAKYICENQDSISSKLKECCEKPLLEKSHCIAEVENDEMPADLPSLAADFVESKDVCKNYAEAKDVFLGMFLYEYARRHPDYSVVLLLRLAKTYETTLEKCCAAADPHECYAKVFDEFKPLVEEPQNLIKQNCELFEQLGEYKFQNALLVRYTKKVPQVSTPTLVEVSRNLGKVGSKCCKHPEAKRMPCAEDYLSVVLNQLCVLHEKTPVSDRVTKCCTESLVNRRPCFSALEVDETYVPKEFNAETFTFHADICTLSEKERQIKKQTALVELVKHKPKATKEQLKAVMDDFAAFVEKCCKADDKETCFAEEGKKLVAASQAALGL

Compound | fraction unbound (HSA [1]; human, 4.5% weight/volume human serum albumin (HSA) solution) | AUC-conc. (for 0 to 10 minutes) greater than that of analogue ([2]; 0 to 10 minutes, versus analogue drawing 27) [%] | % bound to HSA (HSA [1]; 4.5% HSA, error approx ±5%) [%] | binding to HSA (in words) (HSA [3]) | AUC-1/T1 [4] [s^−1 * min] | t1/2 ([2]; elimination half-life, rats, 0.1 mmol/kg i.v. tail vein, plasma over 30 min, bi-exponential two-compartment model) [min] | blood half-life ([2]; rats) [min] | AUC-conc ([2]; rats, 0.1 mmol/kg i.v., first 10 minutes, error approx ±10%) [mM·min] | AUC-conc. from 0 to 10 minutes ([2]; two rats, 0.1 mmol/kg tail vein, Gd153-labeled, calculated with KaleidaGraph) [mM·min]
O=C(O)CN(CCN(CC(=O)O)CC(COP(=O)(O)OCCCCCCCCCCc1ccccc1)N(CC(=O)O)CC(=O)O)CC(=O)O (stereo not drawn) | < 0.05 | ≥ 100 |  |  |  |  |  |  | 
O=C([O-])CN(CCN(CC(=O)[O-])CC(=O)O)CCN(CC(=O)[O-])CC(=O)O.[Gd+3] [DTPA, gadolinium diethylenetriamine-pentaacetic acid] |  |  | 0 | little or no binding to HSA | 27 | 15.0 | 15 | 3.5 | 3.5
